Reference: patent publication US20260055051A1, “Compound with anti-tumor activity, preparation method therefor, and use thereof” (Ocean University of China, priority 2022, published 2026)

Legend:
[1] = test system: human lung cancer cell line A549; test: In vitro tumor cell proliferation inhibition assay (SRB method), A549; assay type: cell-based; conditions: 72 hours; for IC50 / inhibition at 10 µM: SRB; for IC50: mean of triplicate experiments, read-out: IC50 against A549; for inhibition at 10 µM: test compounds 10 μM
Procedure: (§1) Sulforhodamine B Colorimetric Method (SRB Method) and MTT Colorimetric Method (MTT Method)
(§2) Human lung cancer cell line A549, human liver cancer cell line HepG2, human colon cancer cell line HCT116, human colon cancer cell line HT-29, human leukemia cell line K562, human cervical cancer cell line hela, and human breast cancer cell line MCF-7, all provided by the Shanghai Cell Bank, Chinese Academy of Sciences.
(§3) A549, HepG2, HCT116, HT-29, K562, hela, and MCF-7 cells were cultured respectively in 1640, DMEM, 5A, 5A, 1640, DMEM, and 1640 culture media containing 10 wt % heat-inactivated FBS (fetal bovine serum), 2 mM L-glutamine, 100 U/mL penicillin and […] streptomycin, in a cell incubator at 37° C. and 5 vol % CO2. The medium was replaced every two days. After the A549, HepG2, HCT116, HT-29, hela, and MCF-7 cells were confluent, they were digested with 0.05% (w/v) trypsin-EDTA at 37° C., passaged, and maintained in the logarithmic growth phase suitable for testing. The K562 suspension cells were passaged without digestion, and maintained in the logarithmic growth phase suitable for testing. The A549, HepG2, HCT116, HT-29, K562, hela, and MCF-7 cells in the logarithmic growth phase were inoculated to 96-well plates at 5000, 5000, 5000, 5000, 6000, 5000, 5000 per well, respectively, and cultured at 37° C. for 24 h.
(§4) Then various concentrations of test samples were added. The positive control group was doxorubicin hydrochloride (final concentration was 1 μM), the solvent control group was an equal volume of DMSO, and the blank control group was an equal volume of a culture medium, with 4 replicate wells for each concentration. After the A549, HepG2, HCT116, HT-29, hela, and MCF-7 cells were treated with the test drugs for 72 hours, the cells in each well were fixed with 50% (m/v) cold trichloroacetic acid (TCA) and stained with SRB. Then […] of Tris solution was added, and the OD value at the wavelength of 540 nm was measured using a microplate reader. For K562 cells, after 72 hours of treatment with the test drugs, […] of 5 mg/mL MTT was added, and the cells were incubated at 37° C. for 4 hours. Next, […] of a triplet solution (10% SDS, 5% isobutanol, 12 mM HCl) was added, followed by further incubation for 12 to 20 hours. The OD value at the wavelength of 570 nm was measured using a microplate reader.
(§5) The tumor cell growth inhibition rate was calculated according to the following equation: […]
(§6) in the equation, • OD540 control well is the absorbance of the control group; • OD540 dosing well is the absorbance of the test group.
(§7) IC50 values of the test drugs (calculated by GraphPad Prism 5 software) were the means of the results of triplicate experiments.

[2] = test system: human liver cancer cell line HepG2; test: In vitro tumor cell proliferation inhibition assay (SRB method), HepG2; assay type: cell-based; conditions: 72 hours; for IC50 / inhibition at 10 µM: SRB; for IC50: mean of triplicate experiments, read-out: IC50 against HepG2; for inhibition at 10 µM: test compounds 10 μM
Procedure: as §1, §2, §3, §4, §5, §6, §7

[3] = test system: human colon cancer cell line HCT116; test: In vitro tumor cell proliferation inhibition assay (SRB method), HCT116; assay type: cell-based; conditions: for IC50: HCT-116, 72 hours, mean of triplicate experiments, read-out: IC50 against HCT116; for IC50 / inhibition at 10 µM: SRB; for inhibition at 10 µM: HCT-116, test compounds 10 μM
Procedure: as §1, §2, §3, §4, §5, §6, §7

[4] = test system: human colon cancer cell line HT-29; test: In vitro tumor cell proliferation inhibition assay (SRB method), HT-29; assay type: cell-based; conditions: 72 hours; for IC50: SRB, mean of triplicate experiments, read-out: IC50 against HT-29
Procedure: as §1, §2, §3, §4, §5, §6, §7

[5] = test system: human leukemia cell line K562; test: In vitro tumor cell proliferation inhibition assay (MTT method), K562; assay type: cell-based; conditions: 72 hours; for IC50: mean of triplicate experiments, read-out: IC50 against K562
Procedure: as §1, §2, §3, §4, §5, §6, §7

[6] = test system: human cervical cancer cell line hela; test: In vitro tumor cell proliferation inhibition assay (SRB method), hela; assay type: cell-based; conditions: 72 hours; for IC50: SRB, mean of triplicate experiments, read-out: IC50 against hela
Procedure: as §1, §2, §3, §4, §5, §6, §7

[7] = test system: human breast cancer cell line MCF-7; test: In vitro tumor cell proliferation inhibition assay (SRB method), MCF-7; assay type: cell-based; conditions: for IC50: MCF7, 72 hours, SRB, mean of triplicate experiments, read-out: IC50 against MCF-7
Procedure: as §1, §2, §3, §4, §5, §6, §7

A549 cells = test: A549 cell-BALB/c nude mouse subcutaneous tumor transplantation experiment; assay type: in vivo, BALB/c nude mice; conditions: A549 model, test compound 0.5 mg/mL at 10 mL/kg tail vein, 15 times, 6 times
Procedure: (§8) BALB/c nude mice were subcutaneously inoculated with A549, HCT116 and HT-29 cells to establish tumor transplantation models. • Solvent Control Group: 2% DMSO+normal saline+sodium carbonate (the molar ratio of the compound to sodium carbonate is 1:2) • 5-fluorouracil control group: 5-fluorouracil injection (20 mg/kg);
(§9) Test compound group: 1 mg of a test compound was fully dissolved in […] DMSO, and then diluted with normal saline to 0.5 mg/mL. 2 mL was used each time, freshly prepared before use on the same day.
(§10) Eight mice were in each group.
(§11) The solvent control group and the test compound group were administered at a dose of 10 mL/kg via tail vein injection (the dose for each administration was calculated based on the body weight on that day), 5 times a week, for a total of 15 times. The animals were euthanized after the last administration.
(§12) The 5-fluorouracil control group was administered twice a week for a total of 6 times.
(§13) The body weight and tumor diameter were measured twice a week during the administration period. Tumors and the spleen were removed and weighed after euthanasia. The tumor volume, relative tumor volume (RTV), relative tumor growth rate (T/C %), tumor volume inhibition rate (IRTV%), and tumor weight inhibition rate (IRTW%) were calculated. Data for animals that died accidentally were only listed but excluded from statistical analysis.

HCT116 cells = test: HCT116 cell-BALB/c nude mouse subcutaneous tumor transplantation experiment; assay type: in vivo, BALB/c nude mice; conditions: HCT116 model; test compound 0.5 mg/mL at 10 mL/kg tail vein, 15 times; 5-fu 20 mg/kg, 6 times
Procedure: as §8, §9, §10, §11, §12, §13

[8] = test system: A549, HepG2, HCT116, HT-29, K562, hela, and MCF-7 cell lines; test: In vitro tumor cell proliferation inhibition assay, summary over all 7 types of cells; assay type: cell-based; conditions: Homo sapiens
Procedure: as §1, §2, §3, §4, §5, §6, §7

[9] = read-out: Inhibition rate on A549
[10] = read-out: Inhibition rate on HepG2
[11] = 72 hours, read-out: Inhibition rate on HCT116
[12] = upper bound over A549, HepG2, HCT116, HT-29, K562, hela, MCF-7

| Compound | IC50 [1] | inhibition at 10 µM [1, 9] | IC50 [2] | inhibition at 10 µM [2, 10] | IC50 [3] | inhibition at 10 µM [3, 11] | IC50 [4] | IC50 [5] | IC50 [6] | IC50 [7] | also measured |
| --- | --- | --- | --- | --- | --- | --- | --- | --- | --- | --- | --- |
| C=CC(=O)NCc1c(O)c(O)c(O)c(CNC(=O)C=C)c1C(=O)O [Compound I-1, N-(2,3,4-trihydroxy-5-acrylamidomethyl-6-carboxybenzyl) acrylamide] | 2.73 µM | 89.3% | 8.31 µM | 57.5% | 4.77 µM | 92.3% | 16.6 µM | > 50 µM | 23.8 µM | 4.6 µM | average tumor volume at the end of the experiment (A549 cells; 5 times a week, 5-fu 20 mg/kg twice a week): 539.48 mm^3; inhibitory effect (inhibition rate of average tumor weight, FIG. 6) (A549 cells; 5-fu 20 mg/kg): 33.25%; inhibitory effect (inhibition rate of average tumor weight, FIG. 6) (HCT116 cells): 35.13% |
| CC(=O)NCc1c(O)c(O)c(O)c(CNC(C)=O)c1C(=O)O [Compound I-2, N-(2,3,4-trihydroxy-5-acetamidomethyl-6-carboxybenzyl) acetamide] | 4.84 µM | 69.9% | > 50 µM | 18.4% | > 50 µM | 82% | > 50 µM | > 50 µM | > 50 µM | > 50 µM |  |
| Cc1c(O)c(CNC(=O)CCl)cc(CNC(=O)CCl)c1O [Compound I-3, N-(2,4-dihydroxy-3-methyl-5-chloroacetamidomethylbenzyl) chloroacetamide] | 7.4 µM | 95.9% | 6.04 µM | 92.3% | 5.12 µM | 76.5% | 10.7 µM | 14.5 µM | 9.3 µM | 9.73 µM | IC50 [8, 12]: < 35.5 µM |
| Cc1c(C)c(CNC(=O)CCl)c(C)c(CNC(=O)CCl)c1O [Compound I-5, N-(2,3,6-trimethyl-4-hydroxy-5-chloroacetamidomethylbenzyl) chloroacetamide] | 6.32 µM | 89.5% | 4.06 µM | 95.3% | 5.32 µM | 97.3% | 9.39 µM | 6.93 µM | 5.64 µM | 3.74 µM | IC50 [8, 12]: < 35.5 µM; IC50 ([8]; upper bound over all 7 types of cells, compound I-5): < 9.4 µM |
| C=CC(=O)NCc1c(C(=O)OC)cc(O)c(O)c1O [Compound I-8, N-(2,3,4-trihydroxy-6-carbomethoxy-benzyl) acrylamide] |  | 28.5% |  | 54.8% |  | 30.4% |  |  |  |  |  |
| C=CC(=O)NCc1c(C(=O)OCCC)cc(O)c(O)c1O [Compound I-9, N-(2,3,4-trihydroxy-6-propoxycarbonyl-benzyl) acrylamide] |  | 27.5% |  | 51.1% |  | 29.1% |  |  |  |  |  |
| COC(=O)c1cc(O)c(O)c(O)c1CNC(C)=O [Compound I-10, N-(2,3,4-trihydroxy-6-carbomethoxy-benzyl) acetamide] |  | 38.2% |  | 55.8% |  | 34.8% |  |  |  |  |  |
| CCCOC(=O)c1cc(O)c(O)c(O)c1CNC(C)=O [Compound I-11, N-(2,3,4-trihydroxy-6-propoxycarbonyl-benzyl) acetamide] |  | 32.5% |  | 55.5% |  | 38.2% |  |  |  |  |  |
| COC(=O)c1cc(O)c(O)c(O)c1CNC(=O)CCl [Compound I-12, N-(2,3,4-trihydroxy-6-carbomethoxy-benzyl) chloroacetamide] |  | 40.9% |  | 55.9% |  | 47.6% |  |  |  |  |  |
| CCCOC(=O)c1cc(O)c(O)c(O)c1CNC(=O)CCl [Compound I-13, N-(2,3,4-trihydroxy-6-propoxycarbonyl-benzyl) chloroacetamide] |  | 29.6% |  | 55% |  | 37.8% |  |  |  |  |  |
| COC(=O)c1cc(O)c(O)c(O)c1CNC(=O)c1ccccc1 [Compound I-14, N-(2,3,4-trihydroxy-6-carbomethoxy-benzyl) benzamide] |  | 37.7% |  | 1.56% |  | 34.1% |  |  |  |  |  |
| C=CC(=O)NCc1cc(CNC(=O)C=C)c(O)c(C(C)=O)c1O [Compound I-15] |  | 7.05% |  | 33.5% |  | 27.7% |  |  |  |  |  |
| C=CC(=O)NCc1cc(C(C)=O)c(O)c(CNC(=O)C=C)c1O [Compound I-16] |  | 4.84% |  | 13% |  | 33.9% |  |  |  |  |  |
| C=CC(=O)NCc1c(O)c(Br)c(O)c(CNC(=O)C=C)c1C(=O)O [Compound I-17] | 7.77 µM | 95.8% | 3.05 µM | 90.3% | 2.74 µM | 91.5% | 8.6 µM | 18 µM | 3.01 µM | 2.93 µM | IC50 [8, 12]: < 35.5 µM |
| C=CC(=O)NCc1cc(C(=O)OC)cc(O)c1O [Compound I-18] |  | 10.5% |  | 73% |  | 22.5% |  |  |  |  |  |
| COc1cccc2c1C(=O)c1c(O)c3c(c(O)c1C2=O)C[C@@](O)(C(=O)CO)C[C@@H]3O[C@H]1C[C@H](N)[C@H](O)[C@H](C)O1 [doxorubicin, reference compound] |  |  |  |  |  |  |  |  |  |  | inhibition at 1 µM ([1]; doxorubicin 1 μM, read-out: Inhibition rate on A549): 88.8%; inhibition at 1 µM ([2]; doxorubicin 1 μM, read-out: Inhibition rate on HepG2): 78.1%; inhibition at 1 µM ([3]; HCT-116, doxorubicin 1 μM, 72 hours, read-out: Inhibition rate on HCT116): 60.9%; inhibition at 1 µM ([4]; doxorubicin 1 μM, read-out: Inhibition rate on HT-29): 95.3%; inhibition at 1 µM ([5]; doxorubicin 1 μM, read-out: Inhibition rate on K562): 40.8%; inhibition at 1 µM ([6]; doxorubicin 1 μM, read-out: Inhibition rate on hela): 44.3%; inhibition at 1 µM ([7]; MCF7, doxorubicin 1 μM, 72 hours, read-out: Inhibition rate on MCF-7): 69.1% |
